Series [1] can be described thus: Cytotoxicity against african green monkey Vero cells by ATPlite cell viability luminescence assay. The note with it: chlorocebus sabaeus. Type of series: toxicity, cell-based. (In ATP-based viability assays light output follows the ATP content of the culture.)
Series [2] in a line: Microsomal stability in rat liver microsomes assessed as intrinsic clearance preincubated for 5 mins followed by NADPH addition measured upto 60 mins by LC-MS/MS analysis. Format: ADME, Microsome. The settings on record: time < 65 min, read-out: CLH. In general terms: Liver microsomes are vesicles of endoplasmic reticulum, rich in cytochrome P450 enzymes.
The nature of series [3]: Microsomal stability in human liver microsomes assessed as intrinsic clearance preincubated for 5 mins followed by NADPH addition measured upto 60 mins by LC-MS/MS analysis. The note with it: time < 65 min, read-out: CLH. Format: ADME, Microsome.
For series [4], the system named is dengue virus type 2. The series can be described thus: Antiviral activity against DENV-2 16681 expressing eGFP infected in african green monkey Vero cells incubated with cells for 24 hrs followed by viral infection measured after 3 days by laser microscopic analysis. Type of series: functional, organism-based.
The nature of series [5]: Microsomal stability in mouse liver microsomes assessed as intrinsic clearance preincubated for 5 mins followed by NADPH addition measured upto 60 mins by LC-MS/MS analysis. Type of series: ADME, Microsome. The settings on record: time < 65 min, read-out: CLH.
The next series relates to dengue virus type 4. The experiment in a line: Antiviral activity against DENV-4 H241 infected in african green monkey Vero cells incubated for 24 hrs measured after 3 days post infection. The settings on record: Dengue virus, H241, Vero. Format: functional, organism-based.
Series [6] concerns dengue virus type 2. The experiment in a line: Antiviral activity against DENV-2 16681 infected in african green monkey Vero cells incubated for 24 hrs measured after 3 days post infection. Format: functional, organism-based. The note with it: Dengue virus, 16681, Vero.

The term CC50 denotes the concentration at which the toxic effect on the cells reaches its halfway point. The EC50 is the midpoint of the concentration-response curve.

`COc1cc(NC(C(=O)c2c[nH]c3c(C)c(OC)ccc23)c2ccc(F)cc2OC)cc(OCCO)c1` (single isomer, unassigned; (+)): in series [1], the CC50 was found to be 8900 nM. Besides, the microsomal CLint in series [2] was 17 µL/min/mg; in series [3] it was less than 8 µL/min/mg; in series [5], less than 8 µL/min/mg. Besides, in the series with dengue virus type 2 [4] (Dengue virus, 16681, Vero), a half-maximal response (EC50) required 1 nM.
In the series with dengue virus type 2 [4] (vero), `COc1cc(NC(C(=O)c2c[nH]c3cc(F)ccc23)c2ccc(F)cc2)cc(OCCO)c1` (single isomer, unassigned; (+)) registered an EC50 of 11 nM.
`COc1cc(NC(C(=O)c2c[nH]c3c(Cl)c(OC)ccc23)c2ccc(F)cc2OC)cc(OCCO)c1` (centres undefined): the CC50 in series [1] was found to be 8600 nM. Besides, the results for the microsomal CLint in series [2], in series [3] and in series [5] were 37 µL/min/mg, less than 8 µL/min/mg and 9 µL/min/mg, respectively. This molecule had an EC50 in the series with dengue virus type 2 [4] (Dengue virus, 16681, Vero) of 1 nM.
Taken in the same sequence, the figures for `COc1cc(NC(C(=O)c2c[nH]c3c(F)cc(C)cc23)c2ccc(F)cc2OC)cc(OCCO)c1` (single isomer, unassigned; (+)) were 5500 nM, 13 µL/min/mg, 10 µL/min/mg, 10 µL/min/mg and 5 nM.
In the case of `COc1cc(NC(C(=O)c2c[nH]c3cc(F)ccc23)c2ccc(OC(F)(F)F)cc2OC)cc(OCCO)c1` (centres undefined), the half-maximal effective concentration (EC50) came to 3430 nM in the series with dengue virus type 4 and 22 nM with dengue virus type 2 [6].
In the case of `COc1cc(NC(C(=O)c2c[nH]c3ccc(F)cc23)c2ccc(F)cc2)cc(OCCO)c1` (centres undefined), half-maximal cytotoxicity in series [1] (CC50) was put at 14000 nM. Besides, the microsomal CLint in series [2] is 10 µL/min/mg; in series [3], less than 8 µL/min/mg; in series [5], 50 µL/min/mg. Also, the EC50 with dengue virus type 2 [4] (Dengue virus, 16681, Vero) was 16 nM.
Take `COc1cc(NC(C(=O)c2c[nH]c3cc(F)ccc23)c2ccc(F)cc2OCCO)cc(OCCO)c1` (centres undefined): the midpoint of cytotoxicity in series [1], the CC50, lay at 14000 nM. The same molecule came in with an EC50 in the series on dengue virus type 2 [4] (Dengue virus, 16681, Vero) of 41 nM.
For `COc1cc(NC(C(=O)c2c[nH]c3cc(F)ccc23)c2ccc(F)cc2F)cc(OCCO)c1` (centres undefined) the same measures were 13000 nM and 9 nM.
Taken in the same sequence, the figures for `COc1cc(NC(C(=O)c2c[nH]c3cc(F)ccc23)c2ccc(F)cc2Cl)cc(OCCO)c1` (single isomer, unassigned; (-)) were 8200 nM and 6 nM.
`COc1cc(NC(C(=O)c2c[nH]c3cc(Cl)ccc23)c2ccc(F)cc2OC)cc(OCCO)c1` (centres undefined) had a CC50 in series [1] of 5900 nM. The microsomal CLint in series [2] was 24 µL/min/mg; in series [3], less than 8 µL/min/mg; in series [5], less than 8 µL/min/mg. For the same molecule, a half-maximal effect in the series with dengue virus type 2 [4] (Dengue virus, 16681, Vero) (EC50) was put at 2 nM.
Regarding `COc1cc(NC(C(=O)c2c[nH]c3cc(F)c(F)cc23)c2ccc(F)cc2OC)cc(OCCO)c1` (single isomer, unassigned; (+)), the CC50 in series [1] was 6900 nM. For the same molecule, the microsomal CLint is 44 µL/min/mg in series [2], less than 8 µL/min/mg in series [3] and 10 µL/min/mg in series [5]. Moreover, the midpoint of the response with dengue virus type 2 [4] (Dengue virus, 16681, Vero), the EC50, lay at 3 nM.
As to `COc1cc(NC(C(=O)c2c[nH]c3cc(OC)c(F)cc23)c2ccc(F)cc2OC)cc(OCCO)c1` (single isomer, unassigned; (+)), the CC50 in series [1] was greater than 8600 nM. The microsomal CLint in series [2], in series [3] and in series [5] was less than 8 µL/min/mg throughout. This molecule yielded an EC50 with dengue virus type 2 [4] (Dengue virus, 16681, Vero) of 5 nM.
In series [1], `COc1cc(NC(C(=O)c2c[nH]c3cc(F)ccc23)c2ccc(F)cc2OC(F)(F)F)cc(OCCO)c1` (centres undefined) showed a CC50 of 7800 nM. In the series with dengue virus type 2 [4] (Dengue virus, 16681, Vero), this molecule registered an EC50 of 170 nM.
As for `COc1cc(NC(C(=O)c2c[nH]c3cc(F)ccc23)c2ccc(C(F)(F)F)cc2OC)cc(OCCO)c1` (centres undefined), the EC50 with dengue virus type 4 was determined as 770 nM; with dengue virus type 2 [6], 3 nM.
In turn, `COc1cc(NC(C(=O)c2c[nH]c3cc(F)ccc23)c2ccc(F)cc2)cc(OCCO)c1` (stereo in doubt; (-)-7b) returned an EC50 in the series on dengue virus type 2 [4] (vero) of 93 nM.
With `COc1cc(NC(C(=O)c2c[nH]c3c(F)c(F)ccc23)c2ccc(F)cc2OC)cc(OCCO)c1` (centres undefined), it took 6600 nM to reach half-maximal cytotoxicity in series [1] (CC50). Also, the microsomal CLint in series [2] is 8 µL/min/mg; in series [3] it was less than 8 µL/min/mg; in series [5], 8 µL/min/mg. Besides, it took 3 nM to reach a half-maximal effect with dengue virus type 2 [4] (Dengue virus, 16681, Vero) (EC50).

The values are drawn from ChEMBL document CHEMBL5331131, “Discovery of Acyl-Indole Derivatives as Pan-Serotype Dengue Virus NS4B Inhibitors” (J Med Chem, 2023).
